Measurements from patent US20230092762A1, “THERAPEUTIC DELIVERY OF LOCKED NUCLEIC ACID CONJUGATED ANTISENSE MIR-1” (THE TRUSTEES OF INDIANA UNIVERSITY, priority 2020, published 2023).

Experiments:
BAX = test: Western blot analysis of BAX in human keratinocytes; format: cell-based; conditions: 20 μM, 24 h
Experimental: Western Blot Analysis. Immunoblotting was performed using HaCaT cell and wound tissue lysates. After protein extraction, the protein concentration was determined by BCA protein assay as described earlier. The samples (10-20 μg of protein/lane) were separated on a 4-12% SDS polyacrylamide gel electrophoresis and probed with rabbit polyclonal anti-notch1 […] antibody (1:1000 dilution, Abcam, Cambridge, Mass.), rabbit polyclonal anti-BAX antibody (1:1000 dilution, Abcam, Cambridge, Mass.), HRP conjugated anti-GAPDH (1:10,000 dilution). Bands were visualized by horseradish peroxidase-conjugated anti-rabbit-IgG raised in donkey and horseradish peroxidase-conjugated anti-mouse-IgG raised in sheep (Amersham Biosciences, Piscataway, N.J.) at 1:2,000 dilution and the enhanced chemiluminescence assay (Amersham Biosciences, Piscataway, N.J.).

human keratinocytes [1] = test: Respirometry assay (OCR, XF-96 Seahorse); format: cell-based; conditions: 20 μM, 24 h, vs vehicle control
Experimental: Respirometry Assay. The Oxygen Consumption Rate (OCR) measurements were performed using a Seahorse Bioscience XF-96 instrument. A day prior to the experiment, the sensor cartridge was hydrated overnight using the calibration buffer supplied by the manufacturer. The transfected cells were seeded in the 96 well microplate supplied by the company. On the day of the experiment, the cells were washed with the calibrant buffer twice and incubated with glucose free DMEM for 2 h at 37° C. in a CO2 free incubator. The injection ports of the sensors were filled with 20 μL of treatment or vehicle in buffer. The sensor was then placed into the XF-96 instrument and calibrated. After calibration, the calibration fluid plate was replaced with the cell plate. The measurement cycle consisted of a 2 min mix, 1 min wait, and a 2 min measurement. Four basal rate measurements were followed with injections and each injection is followed by four measurement cycles. The consumption rates were calculated from the continuous average slope of the O2 decreases using a compartmentalization model. For any one treatment, the rates from 10 wells were used. Rates for the wells were normalized for protein content. All average rates were normalized to the vehicle control basal and t-tests between control and treatment were used to assess statistical significance.

breast cancer stem cells = conditions: phase I trial; cited from earlier work
human keratinocytes [2] = test: Measurement of mitochondrial membrane potential (JC-1 flow cytometry; TMRM/PMPI); format: cell-based
Experimental: Measurement of Mitochondrial Membrane Potential. Mitochondrial membrane potential changes were assessed by two different techniques, a) using the lipophilic cationic dye JC-1 (MitoProbe JC-1 Assay Kit for Flow Cytometry, Life technologies) per manufacturer's instruction by flow cytometer. Mitochondrial membrane potential was also evaluated b) using TMRM/PMPI after 48 hours of control/[…] mimic transfection. The images were captured by confocal microscope and the quantification of fluorescent intensity was measured using FV1000 software (Olympus, Tokyo, Japan).

In the case of `O=C(O)CC[C@H]1CC[C@@](c2cc(F)ccc2F)(S(=O)(=O)c2ccc(Cl)cc2)CC1` [MK-0752], the BAX dimerization (BAX) is reported as “caused BAX dimerization”, the ATP production (human keratinocytes [1]) is reported as “significant decrease” and the basal respiration (human keratinocytes [1]) is reported as “significant decrease”. For the same compound, the “rate of oxygen consumption” value (human keratinocytes [1]) was “decreased rate of oxygen consumption”, the “breast cancer stem cells” value (breast cancer stem cells) was “reduction of breast cancer stem cells” and the “JC-1 green fluorescence (compromised ΔΨ)” value (human keratinocytes [2]; JC-1, 20 μM, 24 h) was “significant increase in JC-1 green fluorescence”. The TMRM fluorescence (human keratinocytes [2]; TMRM and PMPI staining, 20 μM, 24 h) was “significant decrease in TMRM fluorescence” and the “mitochondrial membrane potential (ΔΨ)” value (human keratinocytes [2]; studies using TMRM and PMPI) was “lowered ΔΨ”.
